Experimental data: PubChem BioAssay AID1253 (Columbia University Molecular Screening Center, 2008)
Activity calls are given as the source filed them.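 The calls were made as follows: active = IC50 under 10 µM in the follow-up dose response; inactive = IC50 10 µM or more, or under 40% single-dose inhibition.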

Target: Tyrosine-protein phosphatase non-receptor type 22 (Homo sapiens) (UniProt Q9Y2R2)
Experiment: PTPN22 enzyme inhibition – biochemical, DiFMUP fluorescence, retest and dose response, confirmation (AID 1253)
Conditions: recombinant LYP

Sequence of Tyrosine-protein phosphatase non-receptor type 22 (Homo sapiens) (Q9Y2R2 whole entry, looked up): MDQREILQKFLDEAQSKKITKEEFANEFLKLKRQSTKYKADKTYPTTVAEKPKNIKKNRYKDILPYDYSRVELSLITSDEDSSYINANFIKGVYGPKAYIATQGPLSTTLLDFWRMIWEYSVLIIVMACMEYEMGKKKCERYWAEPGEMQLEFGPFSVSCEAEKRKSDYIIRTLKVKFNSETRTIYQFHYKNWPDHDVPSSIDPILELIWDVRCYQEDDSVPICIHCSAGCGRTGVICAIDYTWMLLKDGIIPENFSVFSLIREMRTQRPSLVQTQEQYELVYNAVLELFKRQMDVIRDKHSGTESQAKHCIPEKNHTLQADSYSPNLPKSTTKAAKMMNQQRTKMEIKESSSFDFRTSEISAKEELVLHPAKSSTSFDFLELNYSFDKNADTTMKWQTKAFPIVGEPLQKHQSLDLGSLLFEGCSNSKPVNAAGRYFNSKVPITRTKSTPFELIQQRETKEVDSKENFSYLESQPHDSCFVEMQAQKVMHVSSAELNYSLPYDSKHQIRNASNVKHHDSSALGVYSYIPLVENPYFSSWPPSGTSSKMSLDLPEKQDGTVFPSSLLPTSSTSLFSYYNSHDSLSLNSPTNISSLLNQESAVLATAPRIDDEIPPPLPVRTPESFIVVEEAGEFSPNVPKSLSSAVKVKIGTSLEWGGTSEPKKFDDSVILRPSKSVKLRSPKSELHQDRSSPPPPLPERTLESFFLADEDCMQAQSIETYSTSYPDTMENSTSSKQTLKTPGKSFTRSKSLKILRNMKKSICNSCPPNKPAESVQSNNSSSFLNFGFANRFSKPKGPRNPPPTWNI

Compound	IC50
Cc1ccc(NC(=O)CN2C(=O)S/C(=C\c3cccn3-c3cccc(C(=O)O)c3)C2=O)c(C)c1	1270 nM
O=C(O)CCN1C(=O)/C(=C/c2ccc(-c3nc4ccccc4s3)o2)SC1=S	1450 nM
Cn1nc(-c2ccc(Cl)cc2)nc2c(=O)n(C)c(=O)nc1-2	> 10000 nM (inactive)

Same assay, conditions: recombinant LYP, at 10 µM, active compounds read high

Compound	inhibition
Cc1cc(C)cc(-n2c3nc4ccccc4nc3c3c(=O)n(Cc4ccco4)cnc32)c1	inactive
Nn1cnnc1N/N=C/c1cc(Br)cc(Br)c1O	inactive
COc1ccc(S(=O)(=O)Nc2ccc(S(=O)(=O)N3CCCCC3)cc2)cc1	inactive
Cc1ccc(NC(=O)CN2C(=O)S/C(=C\c3ccc(-c4cccc(C(=O)O)c4C)o3)C2=O)cc1	inactive
CCOC(=O)C1=C(C)OC(N)=C(C#N)C1c1c(C)nn(-c2ccc(C)cc2)c1Cl (stereo unspecified)	inactive
CCn1c(CSc2nc3ccccc3s2)nnc1SCC(=O)c1ccc(O)c(O)c1	inactive
C=CCNC(=S)NNC(=O)c1cccn(Cc2ccc(Cl)cc2)c1=O	inactive
CCCC1COC(Cn2cncn2)(c2ccc(Cl)cc2Cl)O1 (stereo unspecified)	inactive
COc1ccc2c(C)cc(SCC(=O)Nc3c(C)n(C)n(-c4ccccc4)c3=O)nc2c1	inactive
Nc1c(C(=O)NCc2ccco2)c2nc3ccccc3nc2n1CCc1ccccc1F	inactive
CCOC(=O)Cc1csc(NC(=S)NC(=O)c2ccc(Cl)cc2)n1	inactive
Cc1cc(C(C)(C)C)cc(C)c1COC(=O)C1CCC(=O)N1 (stereo unspecified)	inactive
Nc1nnc(SCC(=O)Nc2ccc(S(=O)(=O)N3CCOCC3)cc2)s1	inactive
Cc1sc(NC(=O)c2sc3nc4c(C)cccc4cc3c2N)c(C#N)c1C	inactive
Cc1ccc2c(Cl)cc(Cl)c(OCC(=O)NCc3ccco3)c2n1	inactive
CC1CCN(S(=O)(=O)c2ccc(NN=C(C#N)C#N)cc2)CC1	inactive
O=C(Cn1c(-c2ccc(Cl)cc2)noc1=O)N1CCN(c2ccccc2F)CC1	inactive
COc1ccccc1OCc1nnc(SCC(=O)NCc2ccco2)n1Cc1ccco1	inactive
Cc1ccc(-c2nn(CC(=O)NCc3cc(-c4nn(C)c(=O)c5ccccc45)ccc3C)c(=O)c3ccccc23)cc1	inactive
c1ccc(-c2cc(-c3nnc4n3N=C(c3ccc5ccccc5c3)CS4)[nH]n2)cc1	inactive
O=C(Nc1nnc(COc2ccc(Cl)cc2)s1)c1ccc([N+](=O)[O-])cc1	inactive
CCOc1ccc(N(CC(=O)Nc2ccccc2C(=O)NCc2ccco2)S(C)(=O)=O)cc1	inactive
CCOC(=O)c1c(-n2c(C)cc(C=C3C(=O)NC(=S)NC3=O)c2C)sc2c1CCCC2	inactive

Compound	inhibition
CC(=O)NC1CC2CCCC(C1)N2C(=O)Nc1ccccc1 (stereo unspecified)	inactive
O=C(Nc1cnc2ccccc2c1)C1COc2ccccc2O1 (stereo unspecified)	inactive
COc1ccc(S(=O)(=O)N2CC3CCCN3c3cc(C(F)(F)F)ccc32)cc1 (stereo unspecified)	inactive
O=C(O)CCCCCNc1nc(=S)[nH]c2ccccc12	inactive
CCOc1ccc(N2C(=O)CS/C2=C(\C(Cl)=C(Cl)Cl)[N+](=O)[O-])cc1	inactive
Cc1nnc(NC(=O)Nc2ccc(Cl)c(Cl)c2)s1	inactive
CCC(C)n1c(C)nc2c(c1=O)c1nc3ccccc3nc1n2CCC1=CCCCC1 (stereo unspecified)	inactive
c1ccc(-c2ccc(C3=Nn4c(nnc4-c4cc(-c5ccccc5)n[nH]4)SC3)cc2)cc1	inactive
COc1ccc2nc(SCc3cnc(C)nc3N)[nH]c2c1	inactive
COc1ccc2cc(CN(Cc3ccco3)C(c3nnnn3C3CCCCC3)C(C)C)c(=O)[nH]c2c1 (stereo unspecified)	inactive
O=C(NNC(=O)c1ccc2ccccc2c1O)c1ccccc1Cl	inactive
O=C(CSc1nc2ccccc2c2nc3ccccc3n12)NCc1ccco1	inactive
Cc1nn(-c2ccccc2)c(C)c1/C=N/NC(=O)c1cc(C23CC4CC(CC(C4)C2)C3)[nH]n1	inactive
O=C1NC(=O)C(=Cc2cn(CCOc3ccc4c(c3)OCO4)c3ccccc23)C(=O)N1	inactive
CC1CCc2c(sc(NC(=O)c3ccc(Cn4cc([N+](=O)[O-])cn4)o3)c2C#N)C1 (stereo unspecified)	inactive
O=C(Cn1c2ccccc2c(=O)c2ccccc21)N/N=C/c1cc([N+](=O)[O-])ccc1N1CCCCCC1	inactive
CC(C)(C)c1cc(NCCCn2ccnc2)n2ncc(-c3ccc(Cl)cc3)c2n1	inactive
CC(=O)Nc1nonc1NC(=O)c1ccc(C(C)(C)C)cc1	inactive
O=C(Nc1ccc(N2CCCCC2)c(Cl)c1)c1ccc2c(c1)OCCO2	inactive
COc1cccc(/C=N/NC(=O)c2ccc(-c3ccccc3)cc2)c1O	inactive
Cc1ccc(CSc2nnc(-c3ccccc3N)c(=O)[nH]2)cc1	inactive
CCCNc1cc(=O)n(C)c(=O)n1C	inactive
CCCSc1nc(C)c(-c2csc(C(C#N)=C3CCCC3)n2)cc1C#N	inactive

Compound	inhibition
Cc1ccc(CNC(=O)c2ccccc2N)cc1	inactive
O=c1c(/C=N/Nc2ccccc2)c(Sc2nnnn2-c2ccccc2)nc2ccccn12	inactive
Cc1cc(C)n2c(SCC(=O)N3CCN(S(=O)(=O)c4ccc(Cl)cc4)CC3)nnc2n1	inactive
N#CC(c1cccc(C(F)(F)F)c1)(c1ncc(C(F)(F)F)cc1Cl)N1CCOCC1 (stereo unspecified)	inactive
Cn1c(=O)cc(SCC(=O)NCCN2CCN(c3ccccc3F)CC2)c2cc(Cl)ccc21	inactive
O=C(CSc1nnc(-c2ccc(Cl)s2)o1)N1CCCc2ccccc21	inactive
O=C(Nc1ccc(-c2nc3ccc(NC(=O)c4cccs4)cc3[nH]2)cc1)c1cccs1	inactive
O=C(CCN1C(=O)c2ccccc2C1=O)Oc1ccc2ccccc2c1	inactive
O=C(CSc1nc2ccc(S(=O)(=O)N3CCOCC3)cc2[nH]1)N1CCOCC1	inactive
COCCCNC(=O)c1cccn2c(=O)c3cc4ccccc4cc3nc12	inactive
COc1ccccc1/C=C\C=N\n1c(C2CCCCC2)n[nH]c1=S	inactive
Cc1cc2c(cc1C)N(C(=O)CSC1=NCCS1)C(C)(C)c1ssc(=S)c1-2	inactive
CN1CCn2c1nc(N1CCOCC1)nc2=O	inactive
Cc1nc2ccc(S(=O)(=O)NCC(=O)NCc3ccc4c(c3)OCO4)cc2s1	inactive
COC(=O)c1sccc1-n1cccc1C(=O)N1CCOCC1	inactive
CC(/C=N/n1c(C2CCCCC2)n[nH]c1=S)=C\c1ccccc1	inactive
Cc1c(CCOC(=O)C2C3CC4CC(C3)CC2C4)sc[n+]1CC(=O)c1ccc(Br)cc1 (stereo unspecified)	inactive
COc1cccc(-c2nnc(NC(=O)c3ccc(S(=O)(=O)N(CC(C)C)CC(C)C)cc3)o2)c1	inactive
CCNC(=O)COc1cc(C)c(Cl)c(C)c1	inactive
O=C(Nc1ccc2oc(-c3ccc(Cl)c(Cl)c3)nc2c1)c1ncn[nH]1	inactive
O=C(Nc1ccc2oc(-c3cccc4ccccc34)nc2c1)c1ncn[nH]1	inactive
O=C(COc1ccccc1C(=O)N/N=C\c1ccc(O)c(O)c1)N/N=C/c1ccc(O)c(O)c1	inactive
